According to US6077872A (priority 1998, dated 2000):
“Also recorded” adds a separate entry of the source. Like-named read-outs stand apart in the source and are kept apart here.

Tests used:
[1] = test system: castrated male rats with osteoporosis; details: for K (calcification of bone): model-control 1.50 ± 0.26; for P (strength of femur): model-control 5.2 ± 1.1; for Y (flexibility, tenacity): model-control 8.0 ± 1.2; for S (work to break the bone): model-control 24.5 ± 7.5
Method: (§1) Three-point bending test was done on the fresh femur iced in refrigerator with a Model WD-1 Electron Universal Test Machine under the following conditions: a span of 2.5 cm, a 25 kg sensor (1/50), a speed of 2 mm/minute. The function of load versus flexibility was recorded by a finction recorder, wherein P represented the maximum of force at yielding point, Y was flexibility indicating the tenacity of materials. K, as the rate of slope, was a rigidity parameter of materials and was associated with the degree of calcification in bone mechanics. S stood for the work to yield or break femur.
In this test, chemicals were the saine as in test II, animals were male Wistar rats each weighing 150±10 g and were provided by Animal Center of the National Institute for the Identification of Pharmaceuticals and Biological Products, Beijing. The breeding of the rats was the same as in test II.
The male rats each weighing 150±10 g were excised of bilateral spermaries and were fed low-calcium diet and offered deionized water for 60 days, thus made a model of osteoporosis.
Seventy of the castrated male rats were divided into groups and tested in the same manner as Test II but the days of administration were 52 days during the 60 days of test.
In this test, the measuring methods for serum Ca, P, AKP levels, the bone mineral density, the length of femur, wet weight, dry weight, ash weight, the calcium content and the biomechanics of femur were all the same as in test II.

[2] = test system: ovariectomized rats with osteoporosis; test: Test II: dry femur weight, ash weight and calcium content in ovariectomized rats; details: for ash weight: model-control 282.3 ± 30.5; for calcium content: model-control 341.9 ± 43.9; for dry femur weight: model-control 493.4 ± 28.1
Method: (§2) Female rats at the age of 3 months were excised of bilateral ovaries under sterilized condition, and were then fed low-calcium diet and offered with deionized water for 75 days, thus made an osteoporosis model.
Female 3-month-aged rats which had been excised of bilateral ovaries under sterilized condition were fed for a week until their wound was cured. Seventy healthy rats were selected and divided randomly into five groups of 14 rats. […] Group 1-5 were administered one time per day and 6 times per week and were also fed low-calcium diet and de-ionized water. The test period was 75 days. […] The bilateral femurs of rats were stripped off and stored in refrigerator. […] The right femur was stored for analysis of Ca content in femur.
After pulled off soft tissue, the right femur was dried for 5 hours in oven at the temperature of 120° C. until its weight kept a constant (dry weight), then the product was baked for 6 hours in muffle furnace at the temperature of 800° C. until the weight of the product kept a constant which was the ash weight, namely the total amount of inorganic salts. After part of the ash was resolved in dilute hydrochloride, the calcium content of ash was measured by the method of EDTA titration. All data was expressed as X±SD(n). The significance of differences between groups were assessed using the "T-test" method of two groups of small specimen.

[3] = test system: castrated male rats with osteoporosis; details: for serum Ca: model 1.80 ± 0.37; for serum P: model 2.03 ± 0.48; for AKP level in serum (in Bessey-Loury unit): model 96.7 ± 26.4
Method: Serum Ca, P and AKP were measured by a 4010 Automatic Biochemical Analyzer. Serum Ca was determined by calorimetric method using methylthymol blue. Serum P was determined by Mono-Reagent Method. Alkaline phosphatase was determined by method of disodium p-nitrophenylphosphonate (AKP) The tartaric-resistant acidic phosphatase (Tr-ACP) mineral was determined by Piedra procedure. All above reagent-box were available from the Clinical Chemicals Sub-plant of Beijing Chemical Plant.
The pure synthetic low-calcium diet and apparatus used in this test were the same as in test II.

[4] = test system: ovariectomized rats with osteoporosis; details: for Y (flexibility, tenacity): model-control 4.0 ± 1.1; for P (maximum of force at yielding point, femur strength): model-control 6.7 ± 1.2; for S (work to yield or break femur): model-control 11.3 ± 4.7
Method: as §2
Seventy healthy rats were selected and divided randomly into five groups of 14 rats. […] Group 1-5 were administered one time per day and 6 times per week and were also fed low-calcium diet and de-ionized water. The test period was 75 days. When the test was finished, rats were killed by bleeding from bilateral thigh arteries, the separated serum was used for measurement of biochemical parameters such as Ca, P, and AKP and Tr-ACP levels in serum. The bilateral femurs of rats were stripped off and stored in refrigerator. After the measurement of the bone mineral density, the left femur was stored for analysis of biomechanical characteristics. The right femur was stored for analysis of Ca content in femur.
as §1

rickets-mice = test: Preventing rickets in younger mice: body weight, dry weight, ash weight and total calcium content of femur; format: in vivo, mice of Kunming species; details: for dry weight of femur: model 0.099 ± 0.014; for total calcium content: model 24.81 ± 4.36; for ash weight: model 46.62 ± 9.38
Method: The mice were bred for 60 days under conditions of avoiding light around-the-clock, at a temperature of 20-25° C. and a relative humility of 40-60% while the normal-control group mice were fed ordinary diet and water and were placed in non-dark room.
The low-calcium diet used in this test was the same as that in Test II but VD in the vitamin mixture was replaced by glucose.
Some weanling mice were placed in dark room and fed VD -deficient low-calcium diet and drunk de-ionized water for 60 days, thus a ricket model of baby mice was prepared. While other weanling mice were placed in non-dark room and fed ordinary diet and drunk tap water for 60 days, these mice were established as normal-control group.

rickets-babies = test system: rickets-babies
Method: Fourty rickets-babies at the age of 3-10 months were randomly divided into 2 groups of 20 babies each. […] Test group II, namely the calcium carbonate group, were administered orally calcium carbonate twice a day in a dosage of one bag each time.
(2) Biochemical examinations of blood. Venous blood of rickets-baby was sampled before and after the beginning of test and serum Ca, P and AKP level were measured and the product of [Ca]×[P] was calculated.
(3) Data processing: All data was statistically analyzed using the method of direct calculation of probability, grouping t-test and pairing t-test.
Considering the difficulty in sampling blood from rickets-babies during the test operation, blood sampling was not performed at the second week after the beginning of the test. Blood sampling was only performed before the test and at the fourth week after the beginning of the test.

[5] = Solubility of calcium L-threonate; format: physicochemical
in vivo [6] = details: rat, in vivo
From the text: (2) apparatus: Model WFX-1B Spectrophotometer of Atomic Absorption was produced by The Second Optical Apparatus Factory of Beijing, 83114; P-E 3030 Spectrophotometer of Atomic Absorption was produced by Perkin-Elmer Corp.,USA;DT-100 Single-Pan Balance (1/10^4) was produced by Beijing Optical Apparatus Factory; TJ-6 Centrifuge was produced by Beckman, USA; Model MVS-1 Vortex Mixer was produced by Beijing Beide Scientific Apparatus and Materials Co. Ltd.
Twelve hours after the animals had been fasted, 0.5 mL plasma was sampled by excising eyeballs. The plasma was established as the blank group. Then rats were administered agents once in an amount of 20 mL/kg body weight by pouring into the stomach. 0.5 mL plasma was sampled by taking from eyeballs 0.25,0.5,1,1.5,2,3,4,6,8,12 and 16 hours later after the administration. […] The concentration of calcium was measured by a Model WFX-1B Spectrophotometer of Atomic Absorption.

in vivo [7] = details: dog, po, 200 mg/kg
[8] = after four weeks of Ca-supplementing

O=C(O)[C@H](O)[C@@H](O)CO [calcium L-threonate]
K (calcification of bone) ([1]; 100 mg element calcium/kg/d): 2.05 ± 0.25 | P (strength of femur) ([1]; 100 mg element calcium/kg/d): 7.6 ± 1.1 | Y (flexibility, tenacity) ([1]; 100 mg element calcium/kg/d): 7.3 ± 1.6 | S (work to break the bone) ([1]; 100 mg element calcium/kg/d): 29.7 | K (calcification of bone) ([1]; 200 mg element calcium/kg/d): 2.27 ± 0.42 | P (strength of femur) ([1]; 200 mg element calcium/kg/d): 8.7 ± 1.2 | Y (flexibility, tenacity) ([1]; 200 mg element calcium/kg/d): 6.6 ± 1.1 | S (work to break the bone) ([1]; 200 mg element calcium/kg/d): 28.3 | K (calcification of bone) ([1]; 300 mg element calcium/kg/d): 2.52 ± 0.22 | P (strength of femur) ([1]; 300 mg element calcium/kg/d): 9.3 ± 0.9 | Y (flexibility, tenacity) ([1]; 300 mg element calcium/kg/d): 6.3 ± 1.0 | S (work to break the bone) ([1]; 300 mg element calcium/kg/d): 28.7 ± 7.8 | P,K,S values (in words) ([1]; rat, in vivo): markedly increased in contrast to those of the model group rats | ash weight ([2]; 100 mg element calcium/kg/d): 308.5 ± 11.4 mg | calcium content ([2]; 100 mg element calcium/kg/d): 387.8 ± 91.9 mg/g dry weight | dry femur weight ([2]; 100 mg element calcium/kg/d): 517 ± 21.8 mg | ash weight ([2]; 200 mg element calcium/kg/d): 325.3 ± 23.5 mg | calcium content ([2]; 200 mg element calcium/kg/d): 455.1 mg/g dry weight | dry femur weight ([2]; 200 mg element calcium/kg/d): 553.0 ± 38.1 mg | ash weight ([2]; 300 mg element calcium/kg/d): 332.4 ± 13.0 mg | calcium content ([2]; 300 mg element calcium/kg/d): 445.7 mg/g dry weight | dry femur weight ([2]; 300 mg element calcium/kg/d): 546.6 ± 22.8 mg | loss of bone matrix (in words) ([2]; rat, in vivo): retard the loss of bone matrix; also recorded: markedly control and inhibit the loss of bone matrix | serum Ca ([3]; 100 mg element calcium/kg/d): 1.97 ± 0.52 mmol/L | serum P ([3]; 100 mg element calcium/kg/d): 1.87 ± 0.39 mmol/L | AKP level in serum (in Bessey-Loury unit) ([3]; 100 mg element calcium/kg/d): 88.3 ± 13.7 U/L | serum Ca ([3]; 200 mg element calcium/kg/d): 2.20 ± 0.60 mmol/L | serum P ([3]; 200 mg element calcium/kg/d): 1.78 ± 0.55 mmol/L | AKP level in serum (in Bessey-Loury unit) ([3]; 200 mg element calcium/kg/d): 59.2 ± 12.0 U/L | serum Ca ([3]; 300 mg element calcium/kg/d): 2.17 ± 0.62 mmol/L | serum P ([3]; 300 mg element calcium/kg/d): 1.48 ± 0.55 mmol/L | AKP level in serum (in Bessey-Loury unit) ([3]; 300 mg element calcium/kg/d): 56.1 ± 6.2 U/L | serum calcium effect (in words) ([3]; rat, in vivo): significantly higher than that of model group | K (rigidity parameter, calcified degree) ([4]; 100 mg element calcium/kg/d): 2.71 ± 0.36 | Y (flexibility, tenacity) ([4]; 100 mg element calcium/kg/d): 4.1 ± 0.7 | P (maximum of force at yielding point, femur strength) ([4]; 100 mg element calcium/kg/d): 7.9 ± 1.0 | S (work to yield or break femur) ([4]; 100 mg element calcium/kg/d): 14.0 | K (rigidity parameter, calcified degree) ([4]; 200 mg element calcium/kg/d): 2.75 ± 0.31 | Y (flexibility, tenacity) ([4]; 200 mg element calcium/kg/d): 5.3 ± 1.4 | P (maximum of force at yielding point, femur strength) ([4]; 200 mg element calcium/kg/d): 8.5 ± 0.8 | Y (flexibility, tenacity) ([4]; 300 mg element calcium/kg/d): 5.9 ± 1.2 | P (maximum of force at yielding point, femur strength) ([4]; 300 mg element calcium/kg/d): 9.6 ± 1.7 | S (work to yield or break femur) ([4]; 300 mg element calcium/kg/d): 29.4 | dry weight of femur (rickets-mice; 200 mg calcium element): 0.121 ± 0.010 g | total calcium content (rickets-mice; 200 mg calcium element): 36.23 mg | ash weight (rickets-mice; 200 mg calcium element): 69.44 ± 6.62 mg | dry weight of femur (rickets-mice; 300 mg calcium element): 0.131 ± 0.013 g | total calcium content (rickets-mice; 300 mg calcium element): 38.90 ± 13.78 mg | ash weight (rickets-mice; 300 mg calcium element): 74.73 ± 12.31 mg | Ca deposited in femur versus calcium gluconate (in words) (rickets-mice; P<0.05): much higher than that of calcium gluconate | dry femur weight, ash weight and total calcium content (in words) (rickets-mice; high and low dosage): markedly higher than those of the model group and were approximate to those of the normal-control group | percentage of babies whose AKP reached the normal range (rickets-babies; [8]): 90% | percentage of babies whose [Ca] × [P] reached the normal range (rickets-babies; [8]): 100% | percentage of babies whose serum P reached the normal range (rickets-babies; [8]): 100% | serum Ca change (in words) (rickets-babies; before and after the test, P>0.05): no significant variation | serum P and AKP after test versus normal range (in words) (rickets-babies; four weeks): raise the indexes to the normal range of value | serum P (rickets-babies; four weeks after, before 3.19 ± 0.25 (threonate), 3.12 ± 0.20 (carbonate)): 4.50 ± 0.26 | serum Ca (rickets-babies; four weeks after, before 10.49 ± 0.39 (threonate), 10.51 ± 0.47 (carbonate)): 10.65 ± 0.35 | [Ca] × [P] (rickets-babies; four weeks after, before 33.4 ± 2.47 (threonate), 33.83 ± 2.17 (carbonate)): 47.34 ± 3.15 | AKP (rickets-babies; four weeks after, before 235.95 ± 7.89 (threonate), 235.25 ± 7.37 (carbonate)): 203.75 ± 11.46 | solubility in alcohol, ether and chloroform ([5]; alcohol, ether, chloroform): not in alcohol, ether and chloroform | solubility in water ([5]; water): can be solved in water | absorption rate constant ka (in vivo [6]): 6.14 h⁻¹ | CL/F (in vivo [6]; po): 1.04 L/h/kg | Vd/F (in vivo [6]; po): 6.69 L/kg | AUC (in vivo [6]; po, 200 mg/kg): 192 µg·h/mL | Cmax (in vivo [6]; po, 200 mg/kg): 27.2 µg/mL | half-life (in vivo [6]; po, 200 mg/kg): 4.45 h | Tmax (in vivo [6]; po, 200 mg/kg, Tmax): 0.797 h | Tmax (in vivo [7]): 1.21 h | concentration at 0.5 h (in vivo [7]): 23.1 ± 2.68 µg/mL | concentration at 1 h (in vivo [7]): 35.9 ± 4.41 µg/mL | concentration at 2 h (in vivo [7]): 74.04 ± 0.5 µg/mL | concentration at 3 h (in vivo [7]): 46 µg/mL | concentration at 4 h (in vivo [7]): 17.2 µg/mL | concentration at 6 h (in vivo [7]): 9.99 µg/mL | concentration at 8 h (in vivo [7]): 4.66 µg/mL | concentration at 12 h (in vivo [7]): 2.8 µg/mL | concentration at 16 h (in vivo [7]): 4.3 µg/mL | concentration at 24 h (in vivo [7]): 3.99 µg/mL | half-life (in vivo [7]): 3.57 h
